Results: patent publication US20250215029A1 (Recludix Pharma, Inc., priority 2022, published 2025)
Like-named read-outs stand apart in the source and are kept apart here.

What was measured:
[1] = molecular target: T1, Recombinant STAT6 protein (STAT6 (W123-T658)) (Homo sapiens, UniProt P42226); assay: STAT6 Fluorescence Polarization (FP) Assay; format: binding; conditions: 45-minute incubation
T1 construct: Recombinant STAT6 protein (STAT6 (W123-T658))
T1 sequence (P42226 123-658): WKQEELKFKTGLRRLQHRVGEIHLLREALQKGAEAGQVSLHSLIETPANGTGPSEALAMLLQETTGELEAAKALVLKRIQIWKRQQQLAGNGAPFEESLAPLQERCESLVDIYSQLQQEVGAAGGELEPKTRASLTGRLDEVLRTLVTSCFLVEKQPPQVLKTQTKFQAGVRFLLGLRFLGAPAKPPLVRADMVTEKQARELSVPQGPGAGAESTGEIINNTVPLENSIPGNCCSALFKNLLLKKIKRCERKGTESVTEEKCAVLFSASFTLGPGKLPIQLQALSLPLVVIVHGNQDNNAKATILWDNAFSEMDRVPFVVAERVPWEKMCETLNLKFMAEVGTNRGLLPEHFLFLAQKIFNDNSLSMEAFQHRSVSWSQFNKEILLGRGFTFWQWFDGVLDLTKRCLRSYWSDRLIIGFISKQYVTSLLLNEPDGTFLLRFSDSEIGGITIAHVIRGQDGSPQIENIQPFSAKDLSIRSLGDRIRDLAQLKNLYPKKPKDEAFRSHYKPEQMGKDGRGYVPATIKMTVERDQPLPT
How it was run: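 Competitive FP binding: recombinant STAT6 (W123-T658) at 250 nM, labeled phosphotyrosine peptide at 2 nM, compounds at 1% DMSO, 45 min at RT before reading. IC50 values were obtained from nonlinear regression of mP versus log concentration.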

[2] = molecular target: T2, Recombinant STAT3 protein (STAT3 (G127-I722)) (Homo sapiens, UniProt P40763); assay: STAT3 Fluorescence Polarization (FP) Assay; format: binding; conditions: probe 5-FAM-GpYLPQTV-NH2 2 nM, 45-minute incubation
T2 construct: Recombinant STAT3 protein (STAT3 (G127-I722))
How it was run: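 Compounds in serial dilution receive a premix of STAT3 (G127-I722, 25 nM) and fluorescent phosphotyrosine peptide 5-FAM-GpYLPQTV-NH2 (2 nM) at pH 7.4. After 45 min at room temperature, FP is measured and IC50 derived by nonlinear regression.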

[3] = STAT6 (W123-T658) 250 nM, probe 5-FAM-Ap[…]-NH2 2 nM, read-out: STAT6 (FP assay IC50 class)
[4] = STAT3 (G127-I722) 25 nM, read-out: STAT3 (FP assay IC50 class)
[5] = STAT3 25 nM, read-out: STAT3 (FP assay IC50)

T2 sequence (P40763 127-722): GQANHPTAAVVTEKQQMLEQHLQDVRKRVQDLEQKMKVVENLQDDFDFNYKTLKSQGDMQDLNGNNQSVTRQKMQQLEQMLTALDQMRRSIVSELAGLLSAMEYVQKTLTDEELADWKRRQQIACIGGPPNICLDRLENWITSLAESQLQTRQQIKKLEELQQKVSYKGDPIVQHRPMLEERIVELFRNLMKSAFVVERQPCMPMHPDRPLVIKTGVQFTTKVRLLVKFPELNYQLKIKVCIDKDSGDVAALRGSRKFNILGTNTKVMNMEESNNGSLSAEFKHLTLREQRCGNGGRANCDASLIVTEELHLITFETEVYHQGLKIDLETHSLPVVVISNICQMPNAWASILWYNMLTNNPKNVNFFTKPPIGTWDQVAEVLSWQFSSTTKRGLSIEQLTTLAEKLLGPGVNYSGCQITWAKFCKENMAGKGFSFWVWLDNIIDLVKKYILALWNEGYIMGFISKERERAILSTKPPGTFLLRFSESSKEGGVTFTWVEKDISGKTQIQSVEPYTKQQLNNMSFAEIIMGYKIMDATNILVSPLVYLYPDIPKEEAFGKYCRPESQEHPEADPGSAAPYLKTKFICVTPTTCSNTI

Compound | IC50 [1, 3] [nM] | IC50 [2, 4] [nM] | IC50 ([1]; STAT6 250 nM, probe 5-FAM-Ap[…]-NH2 2 nM, read-out: STAT6 (FP assay IC50)) [nM] | IC50 [2, 5] [nM] | IC50 ([1]; STAT6 250 nM, probe 5-FAM-ApYKPFQDLI-NH2 2 nM, read-out: STAT6 (FP assay IC50)) [nM]
O=C(N[C@H]1CCCC[C@H]2CC[C@@H](C(=O)N3CC(OCC(F)F)(c4cccnc4)C3)N2C1=O)c1cc2cc(C(F)P(=O)(O)O)ccc2s1 (stereo partly drawn) [Compound 616, ((2-(((3S,6S,10aS)-3-(3-(2,2-difluoroethoxy)-3-(pyridin-3-yl)azetidine-1-carbonyl)-5-oxodecahydropyrrolo [1,2-a]azocin-6-yl)carbamoyl)benzo [b]thiophen-5-yl)fluoromethyl) phosphonic acid] | 3000 to 30000 | < 100 | – | – | –
N#CC1CN(C(=O)[C@@H]2CC[C@@H]3CC[C@H](NC(=O)c4cc5cc(C(F)(F)P(=O)(O)O)ccc5s4)C(=O)N32)C[C@@H]1c1ccccc1 (relative stereo) [Compound 733, ((2-(((3S,6S,8aS)-3-((rel-trans)-3-cyano-4-phenylpyrrolidine-1-carbonyl)-5-oxooctahydro-indolizin-6-yl)carbamoyl)benzo [b]thiophen-5-yl)difluoromethyl) phosphonic acid] | 300 to 3000 | 1000 to 10000 | – | – | –
Cn1ccc(C2(F)CCN(C(=O)[C@@H]3CC[C@@H]4CCCC[C@H](NC(=O)c5ccc6ccc(C(F)P(=O)(O)O)cc6c5)C(=O)N43)C2)cc1=O (stereo partly drawn) [Compound 903, (fluoro(7-(((3S,6S,10aS)-3-(3-fluoro-3-(1-methyl-2-oxo-1,2-dihydropyridin-4-yl)pyrrolidine-1-carbonyl)-5-oxodecahydropyrrolo [1,2-a]azocin-6-yl)carbamoyl)naphthalen-2-yl)methyl) phosphonic acid] | 300 to 3000 | 1000 to 10000 | – | – | –
Cc1cccnc1N1CC[C@@H](NC(=O)[C@@H]2CC[C@@H]3CCCC[C@H](NC(=O)c4cc5cc(C(F)P(=O)(O)O)ccc5s4)C(=O)N32)C1 (stereo partly drawn) [Compound 534, (fluoro(2-(((3S,6S,10aS)-3-(((R)-1-(3-methylpyridin-2-yl)pyrrolidin-3-yl)carbamoyl)-5-oxodecahydropyrrolo[1,2-a]azocin-6-yl)carbamoyl)benzo[b]thiophen-5-yl)methyl)phosphonic acid] | 3000 to 30000 | 100 to 1000 | – | – | –
O=C(N[C@H]1CCC[C@H]2CC[C@@H](C(=O)N3CC(n4ccc(=O)nc4)C3)N2C1=O)c1cc2cc(C(F)P(=O)(O)O)ccc2s1 (stereo partly drawn) [Compound 620, (fluoro(2-(((3S,6S,9aS)-5-oxo-3-(3-(4-oxopyrimidin-1(4H)-yl)azetidine-1-carbonyl)octahydro-1H-pyrrolo[1,2-a]azepin-6-yl)carbamoyl)benzo [b]thiophen-5-yl)methyl) phosphonic acid] | 300 to 3000 | 100 to 1000 | – | – | –
O=C(N[C@H]1CCC[C@H]2CC[C@@H](C(=O)N3CC(c4cnccc4OC4COC4)C3)N2C1=O)c1cc2cc(C(F)P(=O)(O)O)ccc2s1 (stereo partly drawn) [Compound 598, (fluoro(2-(((3S,6S,9aS)-3-(3-(4-(oxetan-3-yloxy)pyridin-3-yl)azetidine-1-carbonyl)-5-oxooctahydro-1H-pyrrolo[1,2-a]azepin-6-yl)carbamoyl)benzo [b]thiophen-5-yl)methyl) phosphonic acid] | 3000 to 30000 | < 100 | – | – | –
Cn1cnnc1C1CN(C(=O)[C@@H]2CC[C@@H]3CCC[C@H](NC(=O)c4cc5cc(C(F)(F)P(=O)(O)O)ccc5s4)C(=O)N32)C1 [Compound 779, (difluoro(2-(((3S,6S,9aS)-3-(3-(4-methyl-4H-1,2,4-triazol-3-yl)azetidine-1-carbonyl)-5-oxooctahydro-1H-pyrrolo[1,2-a]azepin-6-yl)carbamoyl)benzo [b]thiophen-5-yl)methyl) phosphonic acid] | 3000 to 30000 | < 100 | – | – | –
Cn1ccc(C2CN(C(=O)[C@@H]3CC[C@@H]4CCCC[C@H](NC(=O)c5cc6cc(C(F)(F)P(=O)(O)O)ccc6s5)C(=O)N43)C2)n1 [Compound 65, (difluoro(2-(((3S,6S,10S)-3-(3-(1-methyl-1H-pyrazol-3-yl)azetidine-1-carbonyl)-5-oxodecahydropyrrolo [1,2-a]azocin-6-yl)carbamoyl)benzo[b]thiophen-5-yl)methyl) phosphonic acid] | – | – | 300 to 3000 | 100 to 1000 | –
Cc1ccncc1C1CN(C(=O)[C@@H]2CC[C@@H]3CCCC[C@H](NC(=O)c4cc5cc(CP(=O)(O)O)ccc5s4)C(=O)N32)C1 [Compound 647, ((2-(((3S,6S,10aS)-3-(3-(4-methylpyridin-3-yl)azetidine-1-carbonyl)-5-oxodecahydropyrrolo [1,2-a]azocin-6-yl)carbamoyl)benzo [b]thiophen-5-yl)methyl) phosphonic acid] | 3000 to 30000 | 100 to 1000 | – | – | –
O=C(N[C@H]1CCC[C@H]2CC[C@@H](C(=O)N3CC(c4cnccc4N4CCC4)C3)N2C1=O)c1cc2cc(CP(=O)(O)O)ccc2s1 [Compound 765, ((2-(((3S,6S,9aS)-3-(3-(4-(azetidin-1-yl)pyridin-3-yl)azetidine-1-carbonyl)-5-oxooctahydro-1H-pyrrolo[1,2-a]azepin-6-yl)carbamoyl)benzo [b]thiophen-5-yl)methyl) phosphonic acid] | 3000 to 30000 | < 100 | – | – | –
Cn1cc(C2CN(C(=O)[C@@H]3CC[C@@H]4CCC[C@H](NC(=O)c5cc6cc(C(F)(F)P(=O)(O)O)ccc6s5)C(=O)N43)CCO2)cn1 (some centres unmarked) [Compound 1123] | 300 to 3000 | 1000 to 10000 | – | – | –
COC1(c2nccn2C)CN(C(=O)[C@@H]2CC[C@@H]3CCC4(CC4)C[C@H](NC(=O)c4ccc5ccc(C(F)(F)P(=O)(O)O)cc5c4)C(=O)N32)C1 [Compound 215, (difluoro(7-(((3′S,6′S,10a′S)-3′-(3-methoxy-3-(1-methyl-1H-imidazol-2-yl)azetidine-1-carbonyl)-5′-oxooctahydro-5′H-spiro[cyclopropane-1,8′-pyrrolo[1,2-a]azocin]-6′-yl)carbamoyl)naphthalen-2-yl)methyl)phosphonic acid] | 3000 to 30000 | 1000 to 10000 | – | – | –
C/C1=C/[C@H]2CC[C@@H](C(=O)N3CC(c4cnccc4C)C3)N2C(=O)[C@@H](NC(=O)c2cc3cc(C(F)(F)P(=O)(O)O)ccc3s2)CC1 [Compound 643, (difluoro(2-(((3S,6S,10aR,Z)-9-methyl-3-(3-(4-methylpyridin-3-yl)azetidine-1-carbonyl)-5-oxo-1,2,3,5,6,7,8,10a-octahydropyrrolo[1,2-a]azocin-6-yl)carbamoyl)benzo [b]thiophen-5-yl)methyl) phosphonic acid] | 300 to 3000 | < 100 | – | – | –
COc1cccc([C@@H]2CN(C(=O)[C@@H]3CC[C@@H]4CCCC[C@H](NC(=O)c5cc6cc(C(F)P(=O)(O)O)ccc6s5)C(=O)N43)C3(CC3)[C@H]2C#N)c1 (relative stereo) [Compound 231, ((2-(((3S,6S,10aS)-3-((rel-trans)-7-cyano-6-(3-methoxyphenyl)-4-azaspiro[2.4]heptane-4-carbonyl)-5-oxodecahydropyrrolo[1,2-a]azocin-6-yl)carbamoyl)benzo[b]thiophen-5-yl)fluoromethyl)phosphonic acid] | ≤ 300 | 1000 to 10000 | – | – | –
COc1c(C2CN(C(=O)[C@@H]3CC[C@@H]4CCC[C@H](NC(=O)c5cc6cc(C(F)P(=O)(O)O)ccc6s5)C(=O)N43)C2)ccnc1C#N (stereo partly drawn) [Compound 932, ((2-(((3S,6S,9aS)-3-(3-(2-cyano-3-methoxypyridin-4-yl)azetidine-1-carbonyl)-5-oxooctahydro-1H-pyrrolo[1,2-a]azepin-6-yl)carbamoyl)benzo [b]thiophen-5-yl)fluoromethyl) phosphonic acid] | 3000 to 30000 | < 100 | – | – | –
N#C[C@H]1CN(C(=O)[C@@H]2CC[C@@H]3CCCC[C@H](NC(=O)c4ccc5ccc(C(F)(F)P(=O)(O)O)cc5c4)C(=O)N32)C[C@@H]1c1cc[nH]c(=O)c1 (single isomer, unassigned) [Compound 80, ((7-(((3S,6S,10aS)-3-((3R,4S or 3S,4R)-3-cyano-4-(2-oxo-1,2-dihydropyridin-4-yl)pyrrolidine-1-carbonyl)-5-oxodecahydropyrrolo [1,2-a]azocin-6-yl)carbamoyl)naphthalen-2-yl)difluoromethyl) phosphonic acid] | – | – | – | 100 to 1000 | ≤ 300
